According to PubChem BioAssay AID2060342 (Molecular Pharmacology Branch, DTP, NCI, 2025):

System: 171881-019-R-J1-PDC multicell spheroid viability
Assay: Anticancer human tumor 171881-019-R-J1-PDC patient-derived invasive breast carcinoma cell line growth inhibition [IpAb]
Settings: for IC50: curve of first compound; for viability, T/C: stronger effect = lower value
Text: Combinatorial screen of targeted agents with ipatasertib and abemaciclib in multi-cell type tumor spheroids
A high-throughput screen of multi-cell type tumor spheroids was designed to identify active combinations of targeted small molecules and ipatasertib or abemaciclib. Complex spheroids include a stromal component modeled by human endothelial cells (HUVEC) and fibroblasts modeled by human mesenchymal stem cells (MSCs). The concentration ranges selected for each drug and investigational agent were based upon clinically achievable concentrations if the clinical Cmax of the agent was known.
Compounds. The drugs and investigational agents: ipatasertib (NSC767898), abemaciclib(NSC768073), selumetinib (NSC741078), trametinib (758246), adavosertib (NSC754352), everolimus (NSC733504), sapanisertib (NSC764658), vemurafenib (NSC761431), venetoclax (NSC766270), copanlisib (NSC809693), apelisib (NSC765974), palbociblib (NSC758247), vemurafenib (NSC761431), dabrafenib (NSC764134), ravoxertinib (NSC781343), BMS-387032 (NSC767048), sotorasib (NSC818433), talazoparib (NSC767125) and afursertib (NSC778305), were obtained from the National Cancer Institute (NCI) Developmental Therapeutics Program Chemical Repository. The FDA-approved anticancer drug set is available from the NCI Developmental Therapeutics Program. […] The stock solutions were prepared in dimethyl sulfoxide (DMSO, Sigma-Aldrich, St. Louis, MO, cat. D2650) at 800-fold the tested concentration and stored at -70 degrees C prior to their use. All drugs and investigational agents were tested over a range starting from a high concentration at or near the clinical Cmax and decreasing in half-log increments. If the clinical Cmax for an agent had not been determined, the highest concentration tested was 10 microM.
NCI60 Cell Culture. NCI60 cell lines were obtained from the NCI Developmental Therapeutics Program Tumor Repository. For each lot of cells, the Repository performed Applied Biosystems AmpFLSTR Identifiler testing with PCR amplification to confirm consistency with the published Identifier STR profile for each cell line. Cells were kept in continuous culture for no more than 20 passages. The optimal seeding densities for each of the cell lines at each time point assessed were determined prior to performing the concentration response studies. Briefly, the NCI60 human tumor lines were grown as monolayers in RPMI 1640 medium supplemented with 10% FBS and 2 mmol/L L-glutamine.
An additional 9 lines were from the NCI60 cell line panel including MDA-MB-231 breast carcinoma, MDA-MB-468 breast carcinoma, MCF7 breast carcinoma, Hs578T breast carcinoma, MALME-3M melanoma, SK-MEL-2 melanoma, SK-OV-3 ovarian carcinoma, DU-145 prostate carcinoma, PC-3 prostate carcinoma, all cell lines along with major genetic alterations are listed on Table 2. Pooled donor human umbilical vein endothelial cells (HUVEC, Lonza, cat. CC-2519) and human mesenchymal stem cells (hMSC, Lonza, cat. PT-2501) were purchased from Lonza (Walkersville, MD).
PDMR cell lines were grown in complete medium (DC medium): Dulbecco's modified Eagle's medium (DMEM)/F12 supplemented with 5% fetal bovine serum (FBS), 2 mM L-glutamine, 100 U/mL penicillin and 100 µg/ml streptomycin, 0.4 µg/ml hydrocortisone, 10 ng/ml epidermal growth factor (EGF) recombinant human protein, 24 µg/mL adenine, and 0.1 mg/mL primocin. During culture from frozen stock vials, PDMR cells were cultured in the same medium containing 10 µM Y-27632 (see Table 3). The PDCs were cultured in complete DMEM/F12 media without 10 microM Y-27632 dihydrochloride for at least two passages prior to the screen. The pooled donor HUVEC and hMSC were cultured in endothelial cell growth medium 2 (PromoCell, Heidelberg, Germany, cat. C-22011) and mesenchymal stem cell growth medium 2 (PromoCell, cat. C-28009), respectively. For all experiments, HUVEC and hMSC were used at passages </=5.
[…]

[1] = second compound 0.1 µM, first compound 0.0316 µM
[2] = second compound 0.1 µM, first compound 0.1 µM
[3] = second compound 0.1 µM, first compound 0.316 µM
[4] = second compound 0.1 µM, first compound 1 µM
[5] = second compound 0.1 µM, first compound 3.16 µM
[6] = second compound 0.1 µM, first compound 10 µM
[7] = second compound 0.316 µM, first compound 0.0316 µM
[8] = second compound 0.316 µM, first compound 0.1 µM
[9] = second compound 0.316 µM, first compound 0.316 µM
[10] = second compound 0.316 µM, first compound 1 µM
[11] = second compound 0.316 µM, first compound 3.16 µM
[12] = second compound 0.316 µM, first compound 10 µM
[13] = second compound 1 µM, first compound 0.0316 µM
[14] = second compound 1 µM, first compound 0.1 µM
[15] = second compound 1 µM, first compound 0.316 µM
[16] = second compound 1 µM, first compound 1 µM
[17] = second compound 1 µM, first compound 3.16 µM
[18] = second compound 1 µM, first compound 10 µM
[19] = second compound 3.16 µM, first compound 0.0316 µM
[20] = second compound 3.16 µM, first compound 0.1 µM
[21] = second compound 3.16 µM, first compound 0.316 µM
[22] = second compound 3.16 µM, first compound 1 µM
[23] = second compound 3.16 µM, first compound 3.16 µM
[24] = second compound 3.16 µM, first compound 10 µM
[25] = second compound 10 µM, first compound 0.0316 µM
[26] = second compound 10 µM, first compound 0.1 µM
[27] = second compound 10 µM, first compound 0.316 µM
[28] = second compound 10 µM, first compound 1 µM
[29] = second compound 10 µM, first compound 3.16 µM
[30] = second compound 10 µM, first compound 10 µM
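Also: spheroids exposed to the agents for seven days before readout.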

| SMILES | IC50 (second compound 0.1 µM) [nM] | IC50 (second compound 0.316 µM) [nM] | IC50 (second compound 1 µM) [nM] | IC50 (second compound 3.16 µM) [nM] | IC50 (second compound 10 µM) [nM] | viability, T/C [1] [%] | viability, T/C [2] [%] | viability, T/C [3] [%] | viability, T/C [4] [%] | viability, T/C [5] [%] | viability, T/C [6] [%] | viability, T/C [7] [%] | viability, T/C [8] [%] | viability, T/C [9] [%] | viability, T/C [10] [%] | viability, T/C [11] [%] | viability, T/C [12] [%] | viability, T/C [13] [%] | viability, T/C [14] [%] | viability, T/C [15] [%] | also measured |
| --- | --- | --- | --- | --- | --- | --- | --- | --- | --- | --- | --- | --- | --- | --- | --- | --- | --- | --- | --- | --- | --- |
| Cn1ncc(Cl)c1-c1cc(C(=O)NC(CN)Cc2cccc(F)c2)sc1Cl (stereo not given) + CC(C)NCC(C(=O)N1CCN(c2ncnc3c2C(C)CC3O)CC1)c1ccc(Cl)cc1 | 161 | 66.3 | < 31.6 | < 31.6 | < 31.6 | 86.5 | 67.3 | 25 | 13.1 | 4.31 | 0.42 | 59.8 | 45.3 | 22.6 | 10.6 | 3.79 | 0.18 | 23.8 | 20.8 | 13.8 | viability, T/C [16]: 9.71%; viability, T/C [17]: 3.91%; viability, T/C [18]: 0.14%; viability, T/C [19]: 10.8%; viability, T/C [20]: 10.5%; viability, T/C [21]: 9.15%; viability, T/C [22]: 7.27%; viability, T/C [23]: 3.38%; viability, T/C [24]: 0.25%; viability, T/C [25]: 5.35%; viability, T/C [26]: 5.51%; viability, T/C [27]: 5.12%; viability, T/C [28]: 4.62%; viability, T/C [29]: 2.7%; viability, T/C [30]: 0.21% |
| Cn1nccc1Nc1nccc(-c2ccn(C(CO)c3ccc(Cl)c(F)c3)c(=O)c2)n1 (stereo not given) + CC(C)NCC(C(=O)N1CCN(c2ncnc3c2C(C)CC3O)CC1)c1ccc(Cl)cc1 | 169 | 64.8 | < 31.6 | < 31.6 | < 31.6 | 111 | 65.8 | 32.5 | 10.4 | 7.79 | 7.95 | 69.1 | 38.5 | 9.02 | 4.73 | 3.47 | 3.81 | 17.9 | 10.3 | 3.68 | viability, T/C [16]: 2.46%; viability, T/C [17]: 2.13%; viability, T/C [18]: 1.27%; viability, T/C [19]: 6.73%; viability, T/C [20]: 3.37%; viability, T/C [21]: 2.44%; viability, T/C [22]: 1.77%; viability, T/C [23]: 0.69%; viability, T/C [24]: 0.94%; viability, T/C [25]: 3.16%; viability, T/C [26]: 2.33%; viability, T/C [27]: 1.55%; viability, T/C [28]: 1.06%; viability, T/C [29]: 0.84%; viability, T/C [30]: 0.32% |
